Read-outs that look alike come from different tables or passages of the source.
Molecular target: CFTR (Homo sapiens, UniProt P13569)
Test: Membrane Potential Dye, Enteroid Assay A
Type: cell-based
Settings: for EC50: read-out: Ent. A EC50
Description: Base medium (ADF+++) consisted of Advanced DMEM/Ham's F12, 2 mM Glutamax, 10 mM HEPES, […] penicillin/streptomycin.
Bath 1 Buffer consisted of 1 mM MgCl2, 160 mM NaCl, 4.5 mM KCl, 10 mM HEPES, 10 mM Glucose, 2 mM CaCl2).
Chloride Free Buffer consisted of 1 mM Magnesium Gluconate, 2 mM Calcium Gluconate, 4.5 mM Potassium Gluconate, 160 mM Sodium Gluconate, 10 mM HEPES, 10 mM Glucose.
Bath 1 Dye Solution consisted of Bath 1 Buffer, 0.04% Pluronic F127, 20 μM Methyl Oxonol, 30 μM CaCCinh-A01, 30 μM Chicago Sky Blue.
Chloride Free Dye Solution consisted of Chloride Free Buffer, 0.04% Pluronic F127, 20 μM Methyl Oxonol, 30 μM CaCCinh-A01, 30 μM Chicago Sky Blue.
3. Enteroid Cell Harvesting and Seeding
Cells were recovered in cell recovery solution, collected by centrifugation at 650 rpm for 5 min at 4° C., resuspended in TryPLE and incubated for 5 min at 37° C. Cells were then collected by centrifugation at 650 rpm for 5 min at 4° C. and resuspended in IEMM containing 10 μM ROCK inhibitor (RI).
4. Membrane Potential Dye, Enteroid Assay A
Briefly, cells were washed 5 times in Bath 1 Buffer. Bath 1 Dye Solution was added, and the cells were incubated for 25 min at room temperature. Following dye incubation, cells were washed 3 times in Chloride Free Dye Solution. Chloride transport was initiated by addition of Chloride Free Dye Stimulation Solution and the fluorescence signal was read for 15 min. […] Chloride transport was then expressed as a percentage of the chloride transport following treatment with 3 μM N-[(6-amino-2-pyridyl)sulfonyl]-6-(3-fluoro-5-isobutoxy-phenyl)-2-[(4S)-2,2,4-trimethylpyrrolidin-1-yl]pyridine-3-carboxamide, 3 μM (R)-1-(2,2-difluorobenzo[d][1,3]dioxol-5-yl)-N-(1-(2,3-dihydroxypropyl)-6-fluoro-2-(1-hydroxy-2-methylpropan-2-yl)-1H-indol-5-yl)cyclopropanecarboxamide and 300 nM acute N-[2,4-bis(1,1-dimethylethyl)-5-hydroxyphenyl]-1,4-dihydro-4-oxoquinoline-3-carboxamide triple combination control (% Activity).

Chain of CFTR (P13569 with tags, fused parts or gaps DEL508-508): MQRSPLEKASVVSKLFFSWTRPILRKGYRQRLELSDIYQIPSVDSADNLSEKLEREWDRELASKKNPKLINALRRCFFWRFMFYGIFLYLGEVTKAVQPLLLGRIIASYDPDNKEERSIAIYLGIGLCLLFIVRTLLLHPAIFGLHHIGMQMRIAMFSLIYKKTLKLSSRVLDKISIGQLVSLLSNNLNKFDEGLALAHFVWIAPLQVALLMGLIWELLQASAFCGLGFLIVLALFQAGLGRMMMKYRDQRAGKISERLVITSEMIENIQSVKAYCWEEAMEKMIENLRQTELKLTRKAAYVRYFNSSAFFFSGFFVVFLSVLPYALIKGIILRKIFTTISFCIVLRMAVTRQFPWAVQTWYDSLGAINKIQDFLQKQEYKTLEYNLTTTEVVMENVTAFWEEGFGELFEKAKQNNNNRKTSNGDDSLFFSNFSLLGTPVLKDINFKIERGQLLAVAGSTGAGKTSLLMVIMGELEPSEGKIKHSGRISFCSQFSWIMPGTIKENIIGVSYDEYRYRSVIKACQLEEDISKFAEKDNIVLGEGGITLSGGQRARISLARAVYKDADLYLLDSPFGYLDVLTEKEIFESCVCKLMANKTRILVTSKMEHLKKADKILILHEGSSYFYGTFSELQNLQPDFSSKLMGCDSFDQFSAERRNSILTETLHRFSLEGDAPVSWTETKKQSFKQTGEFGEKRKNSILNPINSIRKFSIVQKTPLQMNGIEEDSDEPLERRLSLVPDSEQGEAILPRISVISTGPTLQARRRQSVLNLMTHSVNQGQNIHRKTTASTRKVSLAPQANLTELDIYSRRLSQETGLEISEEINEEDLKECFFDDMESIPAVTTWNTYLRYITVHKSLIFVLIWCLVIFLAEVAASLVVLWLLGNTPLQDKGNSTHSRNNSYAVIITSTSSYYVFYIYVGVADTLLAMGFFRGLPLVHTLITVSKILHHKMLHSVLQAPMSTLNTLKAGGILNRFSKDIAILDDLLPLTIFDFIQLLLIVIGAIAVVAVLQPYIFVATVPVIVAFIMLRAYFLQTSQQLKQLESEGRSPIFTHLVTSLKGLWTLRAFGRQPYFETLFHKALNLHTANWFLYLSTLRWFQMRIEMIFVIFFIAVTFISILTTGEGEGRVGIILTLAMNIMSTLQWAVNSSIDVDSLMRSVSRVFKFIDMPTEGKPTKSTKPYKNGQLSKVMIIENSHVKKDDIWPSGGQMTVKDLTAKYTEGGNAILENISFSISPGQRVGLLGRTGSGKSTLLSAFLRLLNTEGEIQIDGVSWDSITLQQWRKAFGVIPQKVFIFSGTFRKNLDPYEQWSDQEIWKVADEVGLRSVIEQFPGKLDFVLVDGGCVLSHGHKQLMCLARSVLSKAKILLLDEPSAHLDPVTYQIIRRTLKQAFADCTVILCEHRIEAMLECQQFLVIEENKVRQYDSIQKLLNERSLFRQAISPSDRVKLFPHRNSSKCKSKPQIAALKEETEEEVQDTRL

Row | Ent. A Max Activity (Table 9) | EC50 (Table 9) | Ent. A Max Activity (Enteroid Assay A) | EC50 (Enteroid Assay A) | SMILES | other results
1 | +++ (+++ is >60%) | < 1000 nM | – | – | Cc1cccc(C)c1-c1cc2nc(n1)NS(=O)(=O)c1cccc(c1)C(=O)NCC(c1ccc(CCC(C)(C)C)cc1)O2 (centres unmarked) [Compound 24, 10-[4-(3,3-dimethylbutyl)phenyl]-6-(2,6-dimethylphenyl)-2,2-dioxo-9-oxa-2λ^6-thia-3,5,12,19-tetrazatricyclo[12.3.1.14,8]nonadeca-1(18),4(19),5,7,14,16-hexaen-13-one] | –
2 | +++ (+++ is >60%) | < 1000 nM | – | – | Cc1cccc(C)c1-c1cc2nc(n1)NS(=O)(=O)c1cccc(c1)C(=O)N[C@@H]1CN(CCC3(C(F)(F)F)CC3)CC[C@H]1O2 [Compound 58, (3R,8R)-20-(2,6-Dimethylphenyl)-6-{2-[1-(trifluoromethyl)cyclopropyl]ethyl}-2-oxa-16λ^6-thia-6,9,17,19,22-pentaazatetracyclo[16.3.1.111,15.03,8]tricosa-1(21),11,13,15(23),18(22),19-hexaene-10,16,16-trione] | –
3 | +++ (+++ is >60%) | 1000 to 3000 nM | – | – | CC(C)C[C@@H]1COc2cc(C3CCCCC3(C)C)nc(n2)NS(=O)(=O)c2cccc(c2)C(=O)N1 (stereo partly drawn) [Compound 68, (11R)-6-(2,2-Dimethylcyclohexyl)-11-isobutyl-2,2-dioxo-9-oxa-2λ^6-thia-3,5,12,19-tetrazatricyclo[12.3.1.14,8]nonadeca-1(18),4,6,8(19),14,16-hexaen-13-one] | –
4 | +++ (+++ is >60%) | 1000 to 3000 nM | – | – | Cc1cccc(C)c1-c1cc2nc(n1)NS(=O)(=O)c1cccc(c1)C(=O)NC1(CCN(CCC(C)(C)C)CC1)CO2 [Compound 86, 1′-(3,3-Dimethylbutyl)-6-(2,6-dimethylphenyl)-2,2-dioxo-spiro[9-oxa-2λ^6-thia-3,5,12,19-tetrazatricyclo[12.3.1.14,8]nonadeca-1(18),4(19),5,7,14,16-hexaene-11,4′-piperidine]-13-one] | –
5 | – | – | ++ (++ is 30-60%) | 3000 to 30000 nM | CC(C)C[C@@H]1COc2cc(-c3ccnn3CC(C)C)nc(n2)NS(=O)(=O)c2cccc(c2)C(=O)N1 [Compound 102, (11R)-11-(2-Methylpropyl)-6-[1-(2-methylpropyl)-1H-pyrazol-5-yl]-9-oxa-2λ^6-thia-3,5,12,19-tetraazatricyclo[12.3.1.14,8]nonadeca-1(17),4(19),5,7,14(18),15-hexaene-2,2,13-trione] | –
6 | – | – | +++ (+++ is >600%) | < 1000 nM | CC(C)C[C@@H]1COc2cc(-c3ccccc3OC(F)(F)F)nc(n2)NS(=O)(=O)c2cccc(c2)C(=O)N1 [Compound 103, (11R)-11-(2-Methylpropyl)-6-[2-(trifluoromethoxy)phenyl]-9-oxa-2λ^6-thia-3,5,12,19-tetraazatricyclo[12.3.1.14,8]nonadeca-1(17),4(19),5,7,14(18),15-hexaene-2,2,13-trione] | –
7 | – | – | ++ (++ is 30-60%) | < 1000 nM | CC(C)CCc1ccccc1-c1cc2nc(n1)NS(=O)(=O)c1cccc(c1)C(=O)N[C@H](CC(C)C)CO2 [Compound 104, (11R)-6-[2-(3-Methylbutyl)phenyl]-11-(2-methylpropyl)-9-oxa-2λ^6-thia-3,5,12,19-tetraazatricyclo[12.3.1.14,8]nonadeca-1(17),4,6,8(19),14(18),15-hexaene-2,2,13-trione] | –

Continued, molecule first:

Row | SMILES | Ent. A Max Activity (Table 9) | EC50 (Table 9) | Ent. A Max Activity (Enteroid Assay A) | EC50 (Enteroid Assay A) | other results
8 | Cc1cccc(C)c1-c1cc2nc(n1)NS(=O)(=O)c1cccc(c1)C(=O)NCCCC(c1ccc(C(C)(C)C)cc1)O2 (centres unmarked) [Compound 54, 10-(4-tert-butylphenyl)-6-(2,6-dimethylphenyl)-2,2-dioxo-9-oxa-2λ^6-thia-3,5,14,21-tetrazatricyclo[14.3.1.14,8]henicosa-1(20),4(21),5,7,16,18-hexaen-15-one] | +++ (+++ is >60%) | < 1000 nM | – | – | –
9 | Cc1cccc(C)c1-c1cc2nc(n1)NS(=O)(=O)c1cccc(c1)C(=O)N[C@@H]1CN(C3CC4(CCCCC4)C3)CC[C@H]1O2 [Compound 60, (3R,8R)-20-(2,6-Dimethylphenyl)-6-{spiro[3.5]nonan-2-yl}-2-oxa-16λ^6-thia-6,9,17,19,22-pentaazatetracyclo[16.3.1.111,15.03,8]tricosa-1(21),11,13,15(23),18(22),19-hexaene-10,16,16-trione] | +++ (+++ is >60%) | < 1000 nM | – | – | –
10 | Cc1cccc(C)c1-c1cc2nc(n1)NS(=O)(=O)c1cccc(c1)C(=O)N[C@@H]1CN(Cc3ccccc3)CC[C@H]1O2 [Compound 61, (3R,8R)-6-Benzyl-20-(2,6-dimethylphenyl)-2-oxa-16λ^6-thia-6,9,17,19,22-pentaazatetracyclo[16.3.1.111,15.03,8]tricosa-1(21),11,13,15(23),18(22),19-hexaene-10,16,16-trione] | +++ (+++ is >60%) | < 1000 nM | – | – | –
11 | Cc1cccc(C)c1-c1cc2nc(n1)NS(=O)(=O)c1cccc(c1)C(=O)NC(C(=O)NC(C)(C)C)CO2 (centres unmarked) [Compound 66, N-tert-butyl-6-(2,6-dimethylphenyl)-2,2,13-trioxo-9-oxa-2λ^6-thia-3,5,12,19-tetrazatricyclo[12.3.1.14,8]nonadeca-1(18),4(19),5,7,14,16-hexaene-11-carboxamide] | – | – | – | – | Ent. A Max Activity (Table 8): + (+ is <30%)
12 | Cc1cccc(C)c1-c1cc2nc(n1)NS(=O)(=O)c1cc(ccn1)C(=O)N[C@H](CC1CCCCC1)CO2 [Compound 69, (11R)-11-(Cyclohexylmethyl)-6-(2,6-dimethylphenyl)-2,2-dioxo-9-oxa-2λ^6-thia-3,5,12,17,19-pentazatricyclo[12.3.1.14,8]nonadeca-1(17),4(19),5,7,14(18),15-hexaen-13-one] | – | – | – | – | Ent. A Max Activity (Table 8): +++ (+++ is >60%); EC50 (Table 8): < 1000 nM
13 | Cc1cccc(C)c1-c1cc2nc(n1)NS(=O)(=O)c1cccc(c1)C(=O)NCC1(CCN(Cc3sccc3Oc3ccccc3)CC1)CO2 [Compound 83, 6-(2,6-Dimethylphenyl)-2,2-dioxo-1′-[(3-phenoxy-2-thienyl)methyl]spiro[9-oxa-2λ^6-thia-3,5,13,20-tetrazatricyclo[13.3.1.14,8]icosa-1(19),4(20),5,7,15,17-hexaene-11,4′-piperidine]-14-one] | – | – | +++ (+++ is >600%) | < 1000 nM | –
14 | Cc1cccc(C)c1-c1cc2nc(n1)NS(=O)(=O)c1cccc(c1)C(=O)NCC1(CCN(C(=O)c3cc4ccc(OC(F)(F)F)cc4[nH]3)CC1)CO2 [Compound 84, 6-(2,6-Dimethylphenyl)-2,2-dioxo-1′-[6-(trifluoromethoxy)-1H-indole-2-carbonyl]spiro[9-oxa-2λ^6-thia-3,5,13,20-tetrazatricyclo[13.3.1.14,8]icosa-1(19),4(20),5,7,15,17-hexaene-11,4′-piperidine]-14-one] | – | – | ++ (++ is 30-60%) | < 1000 nM | –
15 | Cc1cccc(C)c1-c1cc2nc(n1)NS(=O)(=O)c1cccc(c1)C(=O)NCC1(CCN(CC3CCCCC3)CC1)CO2 [Compound 85, 1′-(Cyclohexylmethyl)-6-(2,6-dimethylphenyl)-2,2-dioxo-spiro[9-oxa-2λ^6-thia-3,5,13,20-tetrazatricyclo[13.3.1.14,8]icosa-1(19),4(20),5,7,15,17-hexaene-11,4′-piperidine]-14-one] | – | – | ++ (++ is 30-60%) | 3000 to 30000 nM | –
16 | Cc1cccc(C)c1-c1cc2nc(n1)NS(=O)(=O)c1cccc(c1)C(=O)NC(CCC1(C(F)(F)F)CC1)CO2 (centres unmarked) [Compound 92, 6-(2,6-dimethylphenyl)-2,2-dioxo-11-[2-[1-(trifluoromethyl)cyclopropyl]ethyl]-9-oxa-2λ^6-thia-3,5,12,19-tetrazatricyclo[12.3.1.14,8]nonadeca-1(18),4(19),5,7,14,16-hexaen-13-one] | – | – | – | – | Ent. A Max Activity (Table 8): +++ (+++ is >60%); EC50 (Table 8): < 1000 nM
17 | CC(C)C[C@@H]1COc2cc(-c3c(C(C)C)cccc3C(C)C)nc(n2)NS(=O)(=O)c2cccc(c2)C(=O)N1 [Compound 99, (11R)-6-(2,6-diisopropylphenyl)-11-isobutyl-2,2-dioxo-9-oxa-2λ^6-thia-3,5,12,19-tetrazatricyclo[12.3.1.14,8]nonadeca-1(18),4,6,8(19),14,16-hexaen-13-one] | – | – | – | – | Ent. A Max Activity (Table 8): +++ (+++ is >60%); EC50 (Table 8): < 1000 nM
18 | CC(C)C[C@@H]1COc2cc(-c3ccccc3-c3ccccc3)nc(n2)NS(=O)(=O)c2cccc(c2)C(=O)N1 [Compound 101, (11R)-11-Isobutyl-2,2-dioxo-6-(2-phenylphenyl)-9-oxa-2λ^6-thia-3,5,12,19-tetrazatricyclo[12.3.1.14,8]nonadeca-1(18),4,6,8(19),14,16-hexaen-13-one] | +++ (+++ is >60%) | < 1000 nM | – | – | –

— patent US20230382924A1, “MODULATORS OF CYSTIC FIBROSIS TRANSMEMBRANE CONDUCTANCE REGULATOR” (VERTEX PHARMACEUTICALS INCORPORATED, priority 2020, published 2023)
